Test results as given in the supplement of paper PMC12463676, “Small-molecule dissolution of stress granules by redox modulation benefits ALS models” (Nature Chemical Biology, 2025).

Columns and labels:
[1] = compound: O=[As]([O-])(O)O.[K+] [potassium arsenate]; assay: thermal stability z-score vs DMSO; higher = more thermally stabilized by treatment; conditions: HeLa; arsenate concentration 1 mM
Experimental: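 Cellular thermal proteome profiling in HeLa cells treated with 1 mM arsenate for 1 h (DMSO pretreatment), heated to ten temperatures (37-66.3 °C). Soluble protein was quantified by TMT mass spectrometry relative to DMSO controls; the thermal stability score was transformed to a z-score; mean of n = 3 experiments.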

[2] = compound: NC(=O)CCCCC1CCSS1 [lipoamide]; assay: as above; conditions: HeLa, lipoamide concentration 100 µM
Experimental: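 Cellular thermal proteome profiling in HeLa cells. Cells were treated with 100 µM lipoamide for 1 h, with or without 1 mM arsenate for a further 1 h, then heated to ten temperatures (37-66.3 °C), and soluble protein was quantified by TMT mass spectrometry relative to 0.1% DMSO controls. The thermal stability score (sum of log2 fold changes minus the abundance score) was transformed to a z-score; mean of n = 3 experiments.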

[3] = arsenate co-treatment: 1 mM arsenate 1 h
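Further: each temperature applied for 3 min, abundance score taken as mean log2 fold change at the two lowest temperatures, z-score obtained by mean subtraction and division by SD.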

## TMED1 (UniProt Q13445)
[1]
  thermal stability z-score: 0.967
[2]; [3]
  thermal stability z-score: 0.206
[2]; arsenate co-treatment: none
  thermal stability z-score: 0.729

## CCAR2 (UniProt Q8N163)
Chain of UniProt Q8N163 (Q8N163 whole entry): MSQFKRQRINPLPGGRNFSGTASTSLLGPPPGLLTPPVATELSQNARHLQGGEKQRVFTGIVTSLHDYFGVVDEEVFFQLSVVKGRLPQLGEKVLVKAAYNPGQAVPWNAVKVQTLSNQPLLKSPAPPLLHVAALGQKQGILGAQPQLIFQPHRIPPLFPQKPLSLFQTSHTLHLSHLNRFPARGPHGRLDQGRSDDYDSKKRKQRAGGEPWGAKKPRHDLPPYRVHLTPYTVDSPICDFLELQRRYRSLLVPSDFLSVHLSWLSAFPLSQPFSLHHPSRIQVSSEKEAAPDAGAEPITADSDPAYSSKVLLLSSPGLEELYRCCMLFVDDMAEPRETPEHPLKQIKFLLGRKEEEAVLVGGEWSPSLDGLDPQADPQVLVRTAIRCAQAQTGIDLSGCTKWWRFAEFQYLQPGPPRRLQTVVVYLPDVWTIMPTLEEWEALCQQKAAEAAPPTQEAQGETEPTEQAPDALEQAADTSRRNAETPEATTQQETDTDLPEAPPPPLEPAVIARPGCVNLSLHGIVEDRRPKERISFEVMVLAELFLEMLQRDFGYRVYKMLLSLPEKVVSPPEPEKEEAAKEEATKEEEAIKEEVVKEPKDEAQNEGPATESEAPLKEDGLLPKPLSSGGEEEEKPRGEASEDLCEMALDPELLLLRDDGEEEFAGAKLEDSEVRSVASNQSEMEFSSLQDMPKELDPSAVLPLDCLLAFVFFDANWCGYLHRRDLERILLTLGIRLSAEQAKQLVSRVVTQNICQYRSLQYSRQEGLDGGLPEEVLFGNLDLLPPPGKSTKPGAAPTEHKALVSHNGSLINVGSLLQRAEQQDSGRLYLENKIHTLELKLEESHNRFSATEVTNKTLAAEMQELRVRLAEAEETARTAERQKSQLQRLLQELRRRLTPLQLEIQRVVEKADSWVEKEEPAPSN
[1]
  thermal stability z-score: 0.358
[2]; [3]
  thermal stability z-score: -0.42
[2]; arsenate co-treatment: none
  thermal stability z-score: -0.615

## EIF2B4 (UniProt Q9UI10)
[1]
  thermal stability z-score: 0.533
[2]; [3]
  thermal stability z-score: -0.154
[2]; arsenate co-treatment: none
  thermal stability z-score: 0.0556

## TKFC (UniProt Q3LXA3)
[1]
  thermal stability z-score: -0.753
[2]; [3]
  thermal stability z-score: 0.239
[2]; arsenate co-treatment: none
  thermal stability z-score: 0.23

## RFX1 (UniProt P22670)
[1]
  thermal stability z-score: 0.128
[2]; [3]
  thermal stability z-score: 1.04
[2]; arsenate co-treatment: none
  thermal stability z-score: 0.453

## IDH3G (UniProt P51553)
[1]
  thermal stability z-score: -0.189
[2]; [3]
  thermal stability z-score: 0.738
[2]; arsenate co-treatment: none
  thermal stability z-score: -0.664

## MORC2 (UniProt Q9Y6X9)
[1]
  thermal stability z-score: -0.726
[2]; [3]
  thermal stability z-score: -0.165
[2]; arsenate co-treatment: none
  thermal stability z-score: -0.0529

## FAM134C (UniProt Q86VR2)
[1]
  thermal stability z-score: 1.35
[2]; [3]
  thermal stability z-score: 0.622
[2]; arsenate co-treatment: none
  thermal stability z-score: -0.494

## COPS4 (UniProt Q9BT78)
[1]
  thermal stability z-score: -0.453
[2]; [3]
  thermal stability z-score: 0.298
[2]; arsenate co-treatment: none
  thermal stability z-score: -0.0548

## MTM1 (UniProt Q13496)
[1]
  thermal stability z-score: -0.804
[2]; [3]
  thermal stability z-score: 0.198
[2]; arsenate co-treatment: none
  thermal stability z-score: 0.0354

## TFB2M (UniProt Q9H5Q4)
[1]
  thermal stability z-score: 0.215
[2]; [3]
  thermal stability z-score: -0.3
[2]; arsenate co-treatment: none
  thermal stability z-score: -0.261

## CDC42EP1 (UniProt Q00587)
[1]
  thermal stability z-score: 0.213
[2]; [3]
  thermal stability z-score: -0.844
[2]; arsenate co-treatment: none
  thermal stability z-score: -0.776

## DHX37 (UniProt Q8IY37)
[1]
  thermal stability z-score: 0.359
[2]; [3]
  thermal stability z-score: 0.321
[2]; arsenate co-treatment: none
  thermal stability z-score: 0.303

## IRGQ (UniProt Q8WZA9)
[1]
  thermal stability z-score: -0.24
[2]; [3]
  thermal stability z-score: -0.249
[2]; arsenate co-treatment: none
  thermal stability z-score: -0.257

## SIDT2 (UniProt Q8NBJ9)
[1]
  thermal stability z-score: -1.91
[2]; [3]
  thermal stability z-score: -1.33
[2]; arsenate co-treatment: none
  thermal stability z-score: -1.46

## DHX8 (UniProt Q14562)
Chain of UniProt Q14562 (Q14562 whole entry): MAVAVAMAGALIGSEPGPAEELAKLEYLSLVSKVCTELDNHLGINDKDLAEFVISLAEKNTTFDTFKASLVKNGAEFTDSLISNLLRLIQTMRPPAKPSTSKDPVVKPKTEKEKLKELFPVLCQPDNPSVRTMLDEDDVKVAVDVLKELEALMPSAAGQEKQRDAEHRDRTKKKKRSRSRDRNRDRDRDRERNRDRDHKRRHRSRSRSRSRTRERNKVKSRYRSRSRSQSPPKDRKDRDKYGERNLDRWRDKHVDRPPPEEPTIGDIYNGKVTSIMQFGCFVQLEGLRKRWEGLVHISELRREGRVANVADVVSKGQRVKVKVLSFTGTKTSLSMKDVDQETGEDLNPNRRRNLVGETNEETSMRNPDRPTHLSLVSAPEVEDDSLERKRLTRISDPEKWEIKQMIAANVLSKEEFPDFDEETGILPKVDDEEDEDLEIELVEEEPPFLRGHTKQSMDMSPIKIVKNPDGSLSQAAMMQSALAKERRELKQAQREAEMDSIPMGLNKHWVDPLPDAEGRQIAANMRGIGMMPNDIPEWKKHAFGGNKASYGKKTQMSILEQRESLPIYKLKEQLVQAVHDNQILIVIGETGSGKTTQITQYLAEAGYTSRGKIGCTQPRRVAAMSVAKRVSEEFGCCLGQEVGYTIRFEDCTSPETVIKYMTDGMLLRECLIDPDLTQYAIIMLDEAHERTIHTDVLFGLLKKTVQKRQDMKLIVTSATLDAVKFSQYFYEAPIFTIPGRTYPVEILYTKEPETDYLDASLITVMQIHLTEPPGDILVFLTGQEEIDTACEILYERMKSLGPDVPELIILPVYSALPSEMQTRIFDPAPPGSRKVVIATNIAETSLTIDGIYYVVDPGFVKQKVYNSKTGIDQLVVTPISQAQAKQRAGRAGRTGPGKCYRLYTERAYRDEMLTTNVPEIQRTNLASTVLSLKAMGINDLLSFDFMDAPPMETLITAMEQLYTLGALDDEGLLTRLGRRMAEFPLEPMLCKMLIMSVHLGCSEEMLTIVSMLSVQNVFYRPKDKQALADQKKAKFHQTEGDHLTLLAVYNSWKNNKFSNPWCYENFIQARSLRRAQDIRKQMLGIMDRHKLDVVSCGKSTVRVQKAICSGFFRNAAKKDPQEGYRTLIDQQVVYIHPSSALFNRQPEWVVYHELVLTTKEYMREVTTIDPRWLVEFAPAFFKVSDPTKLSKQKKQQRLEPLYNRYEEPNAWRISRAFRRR
[1]
  thermal stability z-score: 0.449
[2]; [3]
  thermal stability z-score: 0.819
[2]; arsenate co-treatment: none
  thermal stability z-score: 0.167

## RPAP3 (UniProt Q9H6T3)
[1]
  thermal stability z-score: 0.38
[2]; [3]
  thermal stability z-score: -0.367
[2]; arsenate co-treatment: none
  thermal stability z-score: -0.207

## PIP4K2B (UniProt P78356)
[1]
  thermal stability z-score: 0.0439
[2]; [3]
  thermal stability z-score: 0.0141
[2]; arsenate co-treatment: none
  thermal stability z-score: 0.0907

## PNPT1 (UniProt Q8TCS8)
[1]
  thermal stability z-score: 0.418
[2]; [3]
  thermal stability z-score: -0.261
[2]; arsenate co-treatment: none
  thermal stability z-score: -0.271

## KRR1 (UniProt Q13601)
Chain of UniProt Q13601 (Q13601 whole entry): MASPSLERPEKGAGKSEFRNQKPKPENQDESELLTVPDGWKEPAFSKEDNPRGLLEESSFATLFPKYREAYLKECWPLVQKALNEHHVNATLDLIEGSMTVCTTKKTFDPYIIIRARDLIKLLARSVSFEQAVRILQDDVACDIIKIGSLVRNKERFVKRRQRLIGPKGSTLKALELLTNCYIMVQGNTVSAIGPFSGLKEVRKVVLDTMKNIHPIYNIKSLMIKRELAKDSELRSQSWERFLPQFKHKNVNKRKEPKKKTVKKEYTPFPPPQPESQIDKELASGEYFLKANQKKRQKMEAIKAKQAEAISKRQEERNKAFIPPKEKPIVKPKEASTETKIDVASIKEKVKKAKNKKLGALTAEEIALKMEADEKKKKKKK
[1]
  thermal stability z-score: -0.512
[2]; [3]
  thermal stability z-score: -0.00732
[2]; arsenate co-treatment: none
  thermal stability z-score: 0.0711

## ATP5O (UniProt P48047)
Chain of UniProt P48047 (P48047 whole entry): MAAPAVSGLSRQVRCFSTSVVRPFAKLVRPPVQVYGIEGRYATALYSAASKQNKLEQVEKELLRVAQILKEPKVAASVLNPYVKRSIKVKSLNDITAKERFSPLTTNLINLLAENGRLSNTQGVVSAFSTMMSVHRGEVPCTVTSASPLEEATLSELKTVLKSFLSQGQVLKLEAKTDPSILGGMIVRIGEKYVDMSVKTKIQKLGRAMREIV
[1]
  thermal stability z-score: -0.119
[2]; [3]
  thermal stability z-score: 0.0702
[2]; arsenate co-treatment: none
  thermal stability z-score: -0.283

## PNKP (UniProt Q96T60)
[1]
  thermal stability z-score: -0.329
[2]; [3]
  thermal stability z-score: -0.0218
[2]; arsenate co-treatment: none
  thermal stability z-score: -0.0196

## EIF6 (UniProt P56537)
[1]
  thermal stability z-score: -2.24
[2]; [3]
  thermal stability z-score: -0.689
[2]; arsenate co-treatment: none
  thermal stability z-score: -0.681

## RAB22A (UniProt Q9UL26)
Chain of UniProt Q9UL26 (Q9UL26 whole entry): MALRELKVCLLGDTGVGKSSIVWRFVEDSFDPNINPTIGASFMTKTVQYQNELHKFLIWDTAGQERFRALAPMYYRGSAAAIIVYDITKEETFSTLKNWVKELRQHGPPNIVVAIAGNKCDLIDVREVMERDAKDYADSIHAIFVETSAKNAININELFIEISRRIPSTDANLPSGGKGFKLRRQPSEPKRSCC
[1]
  thermal stability z-score: -0.396
[2]; [3]
  thermal stability z-score: 0.482
[2]; arsenate co-treatment: none
  thermal stability z-score: 0.207

## TPRA1 (UniProt Q86W33)
Chain of UniProt Q86W33 (Q86W33 whole entry): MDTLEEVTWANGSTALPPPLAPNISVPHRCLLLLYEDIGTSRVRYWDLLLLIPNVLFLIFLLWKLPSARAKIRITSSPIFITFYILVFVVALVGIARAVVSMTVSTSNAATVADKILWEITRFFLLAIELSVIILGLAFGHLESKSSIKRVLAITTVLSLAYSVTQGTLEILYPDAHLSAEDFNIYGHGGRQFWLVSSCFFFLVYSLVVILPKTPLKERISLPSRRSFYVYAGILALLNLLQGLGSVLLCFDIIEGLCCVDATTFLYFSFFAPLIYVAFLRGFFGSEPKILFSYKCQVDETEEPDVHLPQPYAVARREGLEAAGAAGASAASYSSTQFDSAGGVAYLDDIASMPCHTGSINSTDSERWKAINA
[1]
  thermal stability z-score: 0.19
[2]; [3]
  thermal stability z-score: -0.68
[2]; arsenate co-treatment: none
  thermal stability z-score: -0.251

## FAM120B (UniProt Q96EK7)
Chain of UniProt Q96EK7 (Q96EK7 whole entry): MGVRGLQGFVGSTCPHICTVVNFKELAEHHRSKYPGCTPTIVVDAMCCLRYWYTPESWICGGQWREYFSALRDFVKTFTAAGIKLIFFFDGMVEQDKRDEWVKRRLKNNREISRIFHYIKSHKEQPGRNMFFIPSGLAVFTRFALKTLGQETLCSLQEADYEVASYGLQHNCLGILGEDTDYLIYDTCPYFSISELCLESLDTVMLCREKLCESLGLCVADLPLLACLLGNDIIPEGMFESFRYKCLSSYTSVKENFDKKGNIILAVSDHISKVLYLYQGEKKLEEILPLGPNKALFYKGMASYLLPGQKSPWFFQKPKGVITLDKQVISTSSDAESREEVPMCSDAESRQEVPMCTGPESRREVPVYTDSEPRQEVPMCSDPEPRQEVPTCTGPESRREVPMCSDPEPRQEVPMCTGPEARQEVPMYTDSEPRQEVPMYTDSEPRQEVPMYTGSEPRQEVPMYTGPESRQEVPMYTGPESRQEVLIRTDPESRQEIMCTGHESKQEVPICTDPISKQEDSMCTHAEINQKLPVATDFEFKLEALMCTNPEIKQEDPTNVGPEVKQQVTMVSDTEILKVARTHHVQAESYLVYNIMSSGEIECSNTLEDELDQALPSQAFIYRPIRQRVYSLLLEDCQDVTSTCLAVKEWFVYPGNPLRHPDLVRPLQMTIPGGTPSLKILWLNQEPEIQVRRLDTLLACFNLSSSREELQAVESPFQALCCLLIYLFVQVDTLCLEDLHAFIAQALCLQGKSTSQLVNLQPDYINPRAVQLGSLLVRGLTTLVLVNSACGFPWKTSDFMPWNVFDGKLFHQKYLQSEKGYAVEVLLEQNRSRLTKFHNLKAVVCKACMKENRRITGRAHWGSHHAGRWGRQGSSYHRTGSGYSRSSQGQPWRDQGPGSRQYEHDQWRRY
[1]
  thermal stability z-score: -0.081
[2]; [3]
  thermal stability z-score: 0.0177
[2]; arsenate co-treatment: none
  thermal stability z-score: -0.0542

## TM9SF4 (UniProt Q92544)
Chain of UniProt Q92544 (Q92544 whole entry): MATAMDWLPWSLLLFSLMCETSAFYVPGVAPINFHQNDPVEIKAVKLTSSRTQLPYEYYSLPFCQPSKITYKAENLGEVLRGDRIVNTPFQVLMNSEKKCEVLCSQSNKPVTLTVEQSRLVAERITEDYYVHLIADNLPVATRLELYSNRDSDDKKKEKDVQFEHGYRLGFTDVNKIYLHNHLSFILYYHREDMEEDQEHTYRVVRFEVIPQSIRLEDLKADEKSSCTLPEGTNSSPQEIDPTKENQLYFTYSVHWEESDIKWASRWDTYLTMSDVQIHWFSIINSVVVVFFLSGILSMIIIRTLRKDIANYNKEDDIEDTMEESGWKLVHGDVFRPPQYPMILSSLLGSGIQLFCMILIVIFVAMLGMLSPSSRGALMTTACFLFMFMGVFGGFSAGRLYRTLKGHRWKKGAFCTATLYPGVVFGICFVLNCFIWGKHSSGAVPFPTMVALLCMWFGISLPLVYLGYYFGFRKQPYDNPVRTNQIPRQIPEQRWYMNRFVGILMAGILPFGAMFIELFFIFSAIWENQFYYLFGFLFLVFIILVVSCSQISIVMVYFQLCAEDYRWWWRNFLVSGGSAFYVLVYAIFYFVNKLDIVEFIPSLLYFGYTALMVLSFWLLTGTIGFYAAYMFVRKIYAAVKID
[1]
  thermal stability z-score: 0.734
[2]; [3]
  thermal stability z-score: -0.593
[2]; arsenate co-treatment: none
  thermal stability z-score: -0.263

## NECTIN2 (UniProt Q92692)
[1]
  thermal stability z-score: 0.0945
[2]; [3]
  thermal stability z-score: 0.434
[2]; arsenate co-treatment: none
  thermal stability z-score: 0.196

## OCRL (UniProt Q01968)
[1]
  thermal stability z-score: 0.24
[2]; [3]
  thermal stability z-score: 0.142
[2]; arsenate co-treatment: none
  thermal stability z-score: 0.13

## AARS2 (UniProt Q5JTZ9)
[1]
  thermal stability z-score: -0.095
[2]; [3]
  thermal stability z-score: -0.428
[2]; arsenate co-treatment: none
  thermal stability z-score: -0.143
